Laboratory results taken from patent US20240358845A1 (priority 2021, published 2024).
Where two headings read alike, the source gives them in different places.

How the values were obtained:
[1] = tested on: Murine DMD exon 23; settings: mouse, in vivo
[2] = tested on: dystrophin; settings: mouse, in vivo
[3] = tested on: creatine kinase; settings: mouse, in vivo
[4] = tested on: Human CD33 exon 2; settings: U-87 MG glioblastoma cells; 48 hours; 10% FBS
Description: Cells. Differentiated THP-1 cells (human monocyte cells) and glioblastoma cells (human neuronal cells) were used in this study.
Targeting CD33 expression represents a treatment strategy for AD and cancer. Skipping of exon 2 of the gene expressing CD33 produces D2-CD33, a CD33 isoform that lacks a binding domain of sialic acid. In the absence of such a ligand binding domain, CD33 cannot inhibit microglial activation and phagocytosis of amyloid beta by microglial cells. Such a result is protective against AD.

[5] = tested on: Human CD33 exon 2; format: cell-based
[6] = tested on: exon 5 of non-human primate CD33; assay: CD33 exon 5 skipping (RT-PCR) in monkey PBMC after intravenous infusion; format: in vivo; settings: NHP; IV infusion 2 mpk (d0) and 5 mpk (d3)
Procedure: NHP Study design. To explore the tolerability of EEV-PMO on non-human primate (NHP), two CPP-PMO constructs as well as PMO itself are dosed in staggered fashion at 2 mpk and 5 mpk through intravenous infusion on d0 and d3, respectively. […] The CPP used was CPP12, which has a cyclic amino acid sequence of FfΦRrRr. PBMCs (peripheral blood mononuclear cells) were isolated at 1 day (d4) and 7 days […] post 5 mpk injection to detect splicing correction. Blood, serum and urine samples were collected at 1 day and or 7 days post each injection for hematology, clinical chemistry, coagulation, urinalysis, cytokine and histamine analysis.
Detection of exon exclusion by RT-PCR. Although human and non-human primates share high sequence homology of CD33 gene, the 5′-UTR and splicing pattern is different. The sequence coding for the IgV domain of CD33 is located in exon 2 for human and located in exon 5 for non-human primate CD33 gene. Therefore, the skipping of exon 2 in human CD33 (D2-CD33), resulting in ΔIgV-CD33 protein, corresponds to the skipping of exon 5 of non-human primate CD33. Monkey PBMC was collected at specified time points mentioned above. Total RNA was extracted, and RT-PCR was conducted using forward primer 5′-[…]-3′ and reverse primer 5′-[…]-3′ resulting in full length CD33 mRNA (FL-CD33) at 700 bp and Exon-5 skipped CD33 mRNA (D5-CD33) at 320 bp.

[7] = tested on: CD33; assay: CD33 production by flow cytometry in THP1 cells; format: cell-based, human
Description: Such a result is protective against AD.
Detection of exon 2 skipping by RT-PCR and flow cytometry.

5′-GGCCAAACCTCGGCTTACCTGAAAT-3′ (all PMO monomers) [ENTR-0013]
mRNA correction and dystrophin protein expression in the heart [1]: not in 20 mg/kg PMO treated MDX mice
cells positive for dystrophin in cardiac tissue [2]: ≤ 5%

5′-GGCCAAACCTCGGCTTACCTGAAAT-3′-C3NH-PEG4-BCN+Ac-NLS-Lys(CPP12)-PEG12-K(N3) (all PMO monomers) [ENTR-0165]
exon 23 skipping in Quad ([1]; iv, 20 mg/kg): 38.5±2.5%
exon 23 skipping in diaphragm ([1]; iv, 20 mg/kg): 30.2±2.8%
exon 23 skipping in heart ([1]; iv, 20 mg/kg): 30.5±17.0%
expression of dystrophin protein levels (Western Blot) [2]: significantly corrected the expression of dystrophin protein levels

5′-GGCCAAACCTCGGCTTACCTGAAAT-3′-C3NH-PEG4-BCN+Lys(N3)-miniPEG-NLS-ss-bA-bA-CPP12 (all PMO monomers) [ENTR-0164]
exon 23 skipping in Quad ([1]; iv, 20 mg/kg): 59.5±2.2%
exon 23 skipping in diaphragm ([1]; iv, 20 mg/kg): 61.0±13.7%
exon 23 skipping in heart ([1]; iv, 20 mg/kg): 29.1±0.8%
expression of dystrophin protein levels (Western Blot) [2]: significantly corrected the expression of dystrophin protein levels

5′-GGCCAAACCTCGGCTTACCTGAAAT-3′-click-K-PEG12-Lys(CPP12)-NLS-Ac (all PMO monomers) [ENTR-0201]
creatine kinase expression in comparison to control [3]: decrease in creatine kinase expression in comparison to control
serum creatine kinase level [3]: normalized the serum creatine kinase level
amount of splicing correction at 10 mg/kg versus 5 mg/kg [1]: higher amount of splicing correction than treatment with 5 mg/kg
exon skipping activity across muscle groups [1]: high exon skipping activity across all the muscle groups
mRNA correction and dystrophin protein expression in the heart [1]: only observed in 10 mpk ENTR-201 treated MDX mice
performance of CPP12 with Nuclear Localization Sequence versus CPP12 alone [1]: outperformed CPP12 alone significantly
splicing correction of dystrophin in the heart and diaphragm [1]: also resulted in splicing correction of dystrophin in the heart and in the diaphragm
splicing correction of dystrophin mRNA and dystrophin protein levels ([1]; 10 mg/kg): significant splicing correction of dystrophin mRNA and dystrophin protein levels
splicing correction of dystrophin in the heart and diaphragm ([1]; 20 mg/kg): resulted in splicing correction of dystrophin in the heart and in the diaphragm
duration of enhanced exon skipping efficiency ([1]; iv, 20 mg/kg): significant enhancements in exon skipping efficiency up to four weeks
exon 23 skipping in Quad ([1]; iv, 20 mg/kg): 73.5±8.4%
exon 23 skipping in diaphragm ([1]; iv, 20 mg/kg): 79.0±6.8%
exon 23 skipping in heart ([1]; iv, 20 mg/kg): 60.5±17.2%
splicing correction of dystrophin ([1]; iv, 20 mg/kg): resulted in splicing correction of dystrophin
splicing correction and dystrophin protein in comparison to 20 mpk PMO [2]: higher amount of both splicing correction and dystrophin protein in all four muscle tissues
duration of restored dystrophin protein (Western Blot) ([2]; iv, 20 mg/kg): sustained up to four weeks
dystrophin immunohistochemistry, skeletal muscle fibers ([2]; iv, 20 mg/kg): all the skeletal muscle fibers immunostained positive for dystrophin protein
intensity of dystrophin expression in heart muscle tissue (immunohistochemistry) ([2]; iv, 20 mg/kg): reaching near normal levels

5′-GTAACTGTATTTGGTACTTCC-3′ (Ac-NLS-Lys(CPP12)-PEG12-K(N3)- (all PMO monomers) [EEV-PMO-CD33-5]
skipping of exon 2 CD33 (RT-PCR) [4]: dose-dependent skipping of exon 2 CD33
dose dependence of exon 2 skipping [5]: dose-dependent skipping of exon 2 CD33
improvement of exon 2 skipping compared to unconjugated PMO-CD33 [5]: over 1000 fold
improvement of exon 2 skipping over PMO-CD33 with Endoporter transfection [5]: over 2 fold
skipping of exon 5 of CD33 gene in monkey PBMC [6]: resulted in skipping of exon 5 of CD33 gene

5′-GTAACTGTATTTGGTACTTCC-3′ + CPP12-PEG12-K(CPP12)-PEG12-TFP (all PMO monomers) [EEV-PMO-CD33-4]
production of CD33 (flow cytometry) in comparison to untreated (NT) cells [7]: reduced production of CD33
dose dependence of exon 2 skipping [5]: dependent on the dose
efficacy in inducing human CD33 exon 2 skipping (PMO sequence optimization) [5]: superior efficacy
potency of bivalent versus monovalent EEV-PMO-CD33 in inducing CD33 exon 2 skipping [5]: more potent than EEV-PMO-CD33-2
skipping of exon 2 of CD33 (RT-PCR) [5]: resulted in skipping of exon 2 and the production of D2-CD33
